Assay results as given in article PMC4380424, “Prediction of Overall In Vitro Microsomal Stability of Drug Candidates Based on Molecular Modeling and Support Vector Machines. Case Study of Novel Arylpiperazines Derivatives” (PLoS ONE, 2015).
Entries after “also recorded” stand apart in the source; their conditions may differ.

Experiments:
[1] = Metabolic stability: in vitro incubation with human liver microsomes and NADPH, LC-MS quantification; conditions: pooled human liver microsomes, pH 7.4
Description: (§1) The studied compounds were dissolved in acetonitrile (compounds 1, 3, 4, 10, 18, 19, 21, 22, 23, 24, 25, 26, 27, 28, 29), water (compounds 2, 7, 9, 11, 12, 13, 14, 15, 16, 17, 20, 30) or dimethyl sulfoxide (compounds 5 and 6), and diluted in phosphate buffer (pH = 7.4) to obtain 100 μM solutions. A 10 mM NADPH solution in phosphate buffer was prepared before incubations. Final concentrations in the incubation mixes were 5 μM of studied compound, 500 μM of NADPH and 1 mg/ml of human liver microsomes.
(§2) Using a MyBlock mini dry-bath (Benchmark Scientific, NJ, USA), mixtures without the compounds were subjected to a 5 min pre-incubation at 37°C before each experiment. Incubations were initiated with the addition of 15 μL of the compound solution to the mixture. The experiment lasted for 30 min. Immediately after addition of the compound, 50 μL of incubation mixture was collected and mixed with 50 μL of the stopping reagent, which was ice-cold acetonitrile containing 5 μM buspirone as internal standard. The next sample collection points were after 5, 10, 15 and 30 minutes of incubation time. After stopping the reaction, suspensions were centrifuged for 10 minutes at 7378 g using a Microfuge 16 (Beckman Instruments, Fullerton, CA, USA). Subsequently, 70 μL of supernatant thus obtained was directly analyzed using LC-MS (Agilent Technologies, Santa Clara, CA, USA).
(§3) The incubation and LC-MS analysis were repeated twice for each compound. To ensure that the biological conditions were valid, and no compound degradation occurs related to the addition of the enzyme solution, a negative control for each derivative was also performed.
(§4) The LC analysis was carried out using an Agilent 1260 Infinity system (Agilent Technologies) consisting of a binary pump, autosampler, temperature-controlled column compartment and UV variable wavelength detector, coupled with an Agilent 6120 Single Quad mass detector. Incubation samples were separated at 40°C on a Poroshell 120 EC-C-18 column (3 mm x 100 mm, 2.7 μm), provided by Agilent Technologies. The data were collected and processed in ChemStation software (v. B. 04.03, Agilent Technologies, Santa Clara, CA, USA). The injection volume was 10 μL. Mobile phases consisted of deionized water (phase A) and acetonitrile (phase B), both with 10 mM ammonium formate buffer (pH = 3) added. Gradient elution program was as follows: 0–15 min—5%-100% B, 15–16 min—100% B, 16–16.10 min—100%-5% B, 16.10–21 min 5% B. The flow rate was 0.5 ml/min. The total time for a single analysis was 21 minutes. MS detection was performed using an Agilent 6120 Single Quad mass spectrometer (Agilent Technologies) equipped with an electrospray (ESI) ion source. A nebulizer (pressure set to 40 psig) allowed for the gas phase ionization of studied compounds. Nitrogen (NM32LA Nitrogen Generator, Peak Scientific Instruments, Billerica, MA, USA) was used as the drying gas, with a flow rate of 10 L/min and a drying temperature of 300°C. Capillary voltage was set to 3000 V. Fragmentor voltage was set to 150 V. Chromatograms were collected with the use of single ion monitoring (SIM) in positive ion mode.
(§5) Half-life evaluation requires a compound depletion plot, which is obtained by plotting the time of incubation against the logarithmic peak area ratio (the ratio of the compound peak area to the internal standard peak area). […] After the elimination rate constant was designated, half-lives were calculated (Equation 1).

[2] = LC-Q-TOF-MS/MS metabolite structure elucidation after microsomal incubation; conditions: HLM + NADPH incubation
Description: as §1, §2
Tandem mass spectra of the metabolites were obtained with the use of an Agilent 1290 LC system connected to a hybrid Q-TOF tandem mass spectrometer (Agilent 6540 Series Accurate Mass Q-TOF-MS/MS). […] The Dual ESI source was operated in positive ion mode with the following conditions: the fragmentor voltage was set at 150V, nebulizer gas was set at 40 psig, capillary voltage was set at 3000 V, drying gas flow rate and temperature were set at 10 L/min and 300°C, respectively. The MS was operated in targeted MS/MS acquisition mode with a fixed collision energy of 35 V and a mass range of 30–1700 m/z. […] The instrument was operated in High Resolution mode (4 GHz). The Q-TOF was calibrated using reference masses 121.050873, 149.02332 and 922.009798 during the analysis run to ensure constant mass correction.
Several derivatives that varied in their degrees of non-pharmacophore ring saturation, R, R’ substituents and pharmacophore parts (2-pyridyl, 2-pyrimidynyl, phenyl-CF3), were chosen to collect fragmentation spectra using a Q-TOF tandem mass spectrometer and LC conditions as described earlier. […] The compounds’ structures and chromatographs were submitted to MassHunter Workstation Software MetaboliteID ver. B.02.00 build 2.0.121 to detect possible biotransformation products.

in vitro = conditions: human, microsomes, pH 7.4
Description: as §1, §2, §3, §4, §5

Structure (SMILES) | half-life at 5 μM [1] | Type of biotransformation, metabolite M1 [2] | Type of biotransformation, metabolite M2 [2] | Type of biotransformation, metabolite M3 [2] | half-life at 5 μM (in vitro)
O=C1CC2(CCCC2)CC(=O)N1CCCCN1CCN(c2ncccn2)CC1 [Buspirone, buspirone, reference compound] | 6.59 min | – | – | – | –
O=c1c(-c2ccccc2)c2ccccn2c(=O)n1CCCCN1CCN(c2ncccn2)CC1 [Compound 6] | 5.29 min | hydroxylation | double hydroxylation in pharmacophore part | – | –
COc1ccccc1-c1c(=O)n(CCCCN2CCN(c3ncccn3)CC2)c(=O)n2ccccc12 [Compound 11] | 4 min | Hydroxylation in the pharmacophore part | hydroxylation | O-demethylation reaction along with hydroxylation in the pharmacophore part; also recorded: O-demethylation and hydroxylation | –
O=C1C(c2ccccc2)C2CCCCN2C(=O)N1CCCCN1CCN(c2ccccc2F)CC1 (stereo not shown) [Compound 25] | – | – | – | – | 5.77 min
O=c1c(-c2ccccc2)c2n(c(=O)n1CCCCN1CCN(c3ncccn3)CC1)CCCC2 [Compound 30] | 9.32 min | hydroxylation of the non-pharmacophore part of the molecules; also recorded: hydroxylation in both pharmacophore and non-pharmacophore site | hydroxylation of the non-pharmacophore part of the molecules; also recorded: Hydroxylation in the non-pharmacophore part of the molecule; also recorded: hydroxylation | hydroxylation | –
